Measurements reported in US7244855B2, “Synthesis of oligomeric epicatechin and catechin-derived procyanidins” (Mars, Inc., priority 2002, dated 2007).

How the values were obtained:
[1] = system: MDA MB-231 human breast cancer cells; experiment: Cell cycle analysis by flow cytometry (Vindelov method); format: cell-based; details: for Effect on cell cycle (G0/G1 arrest), in words: procyanidin-treated MDA MB-231 cells, see Table 1; for Increase in G0/G1 arrest, synthetic compared to natural procyanidin: see Table 2
Description: The MDA MB-231 cell line was P53 defective, ER negative, and constitutively expressed K-ras. Cells were cultured in T-75s in IMEM medium (BioFluids Inc.) supplemented with 10% FBS (Gibco BRL Life Technologies) in a humidified 5% CO2 atmosphere at 37° C. […] See Vindelov, L. et al., “A Detergent Trypsin Method for the Preparation of Nuclei for Flow Cytometric DNA Analysis”, Cytometry, 1983, 3, 323–327. Analyses were performed by the Lombardi Cancer Center Flow Cytometry Core Facility at Georgetown University Medical Center.

[2] = system: human breast cancer cell lines; experiment: Cytotoxicity assay (microculture tetrazolium assay modified for crystal violet); format: cell-based
Description: The human breast cancer cell lines MCF-7, SKBR-3, MDA 435, and MDA MB-231 were obtained from the Lombardi Cancer Center Cell Culture Core Facility at Georgetown University Medical Center. The MDA MB-231 cell line was P53 defective, ER negative, and constitutively expressed K-ras. Cells were cultured in T-75s in IMEM medium (BioFluids Inc.) supplemented with 10% FBS (Gibco BRL Life Technologies) in a humidified 5% CO2 atmosphere at 37° C.
Cytotoxicity assays were performed on several human breast cancer cell lines treated with test compounds in a 96 well microtiter plate format using the microculture tetrazolium assay^28 modified for use with crystal violet rather than MTT. Briefly, 1–2×10^3 cells were added per well and allowed to culture in a humidified, 5% CO2 atmosphere until they reached approximately 50% confluence. Sterile filtered test compounds were added at various concentrations, and the plates were allowed to culture for an additional 12–36 hours. The growth medium was then removed, and each well was washed twice with 200 μL each of pH 7.4 PBS. […] At the end of 1 hour, the plates were scanned at 570 nm (ref. 405 nm) with a Molecular Devices Corporation microtiter plate reader, and the data was recorded with the SOFTMAX software program. The average of 3 readings was taken for each blank, control, vehicle, and test concentration for statistical data manipulation.

[3] = Table 3, 100 μM H2O2 + catalase, 24 hr
[4] = Table 3, 100 μM H2O2 + heat inactivated catalase, 24 hr
[5] = Table 2, natural versus synthetic, 200 μg/mL, 24 hr
[6] = Table 1, procyanidins purified from cocoa, 200 μg/mL, 24 hrs
[7] = Table 3, 200 μg/mL + 100 μM H2O2 + catalase, 24 hr
[8] = Table 3, 200 μg/mL + 100 μM H2O2 + heat inactivated catalase, 24 hr
[9] = Table 3, 200 μg/mL + 100 μM H2O2, 24 hr
[10] = Table 3, 200 μg/mL + catalase, 24 hr
[11] = Table 3, 200 μg/mL + heat inactivated catalase, 24 hr

Question: Which “% G0/G1” value [1, 3] does the source give for `OO` [H2O2, hydrogen peroxide, reference compound] here?
Answer: 35.20%

Question: And the “% G2/M” value [1, 3]?
Answer: 21.86%

Question: What about the “% S” value [1, 3] of the same compound?
Answer: 42.93%

Question: What about the “% G0/G1” value [1, 4] of the same compound?
Answer: 20.27%

Question: What about the “% G2/M” value [1, 4] of the same compound?
Answer: 34.25%

Question: And the “% S” value [1, 4]?
Answer: 45.48%

Question: What about the “% G0/G1” value ([1]; Table 3, 100 μM H2O2, 24 hr) of the same compound?
Answer: 20.32%

Question: And the “% G2/M” value ([1]; Table 3, 100 μM H2O2, 24 hr)?
Answer: 34.76%

Question: And the “% S” value ([1]; Table 3, 100 μM H2O2, 24 hr)?
Answer: 44.92%

Question: And the “Effect of hydrogen peroxide on cell cycle, in words” value ([1]; hydrogen peroxide at levels reported in the literature, see Table 3)?
Answer: shift in the cell cycle to G2/M with a decrease in G0/G1

Question: Which “% G0/G1” value [1, 5] does the source give for `Oc1cc(O)c2c(c1)O[C@H](c1ccc(O)c(O)c1)[C@H](O)[C@H]2c1c(O)cc(O)c2c1O[C@H](c1ccc(O)c(O)c1)[C@H](O)[C@H]2c1c(O)cc(O)c2c1O[C@H](c1ccc(O)c(O)c1)[C@H](O)[C@H]2c1c(O)cc(O)c2c1O[C@H](c1ccc(O)c(O)c1)[C@H](O)[C@H]2c1c(O)cc(O)c2c1O[C@H](c1ccc(O)c(O)c1)[C@H](O)C2` [Natural pentamer, epicatechin (4β,8)4-pentamer] here?
Answer: 45.99%

Question: What about the “% G2/M” value [1, 5] of the same compound?
Answer: 15.76%

Question: What about the “% S” value [1, 5] of the same compound?
Answer: 38.25%

Question: How did the “% G0/G1” value [1, 6] turn out when `Oc1cc(O)c2c(c1)O[C@H](c1ccc(O)c(O)c1)[C@H](O)[C@H]2c1c(O)cc(O)c2c1O[C@H](c1ccc(O)c(O)c1)[C@H](O)[C@H]2c1c(O)cc(O)c2c1O[C@H](c1ccc(O)c(O)c1)[C@H](O)[C@H]2c1c(O)cc(O)c2c1O[C@H](c1ccc(O)c(O)c1)[C@H](O)C2` [Natural tetramer, epicatechin (4β,8)3-tetramer] was run?
Answer: 51.46%

Question: What about the “% G2/M” value [1, 6] of the same compound?
Answer: 20.30%

Question: What about the “% S” value [1, 6] of the same compound?
Answer: 28.25%

Question: What about the “% G0/G1” value [1, 5] of the same compound?
Answer: 36.82%

Question: And the “% G2/M” value [1, 5]?
Answer: 19.02%

Question: And the “% S” value [1, 5]?
Answer: 43.37%

Question: What about the “Effect on cell cycle (G0/G1 arrest), in words” value [1] of the same compound?
Answer: only a slight effect

Question: Which results are given for `Oc1cc(O)c2c(c1)O[C@H](c1ccc(O)c(O)c1)[C@H](O)[C@H]2c1c(O)cc(O)c2c1O[C@H](c1ccc(O)c(O)c1)[C@H](O)[C@H]2c1c(O)cc(O)c2c1O[C@H](c1ccc(O)c(O)c1)[C@H](O)C2` [Natural trimer, epicatechin (4β,8)2-trimer]?
Answer: % G0/G1 [1, 6]: 43.22%; % G2/M [1, 6]: 20.80%; % S [1, 6]: 35.98%; % G0/G1 [1, 5]: 28.46%; % G2/M [1, 5]: 23.05%; % S [1, 5]: 48.49%; Effect on cell cycle (G0/G1 arrest), in words [1]: no effect

Question: How did the “% G0/G1” value [1, 7] turn out when `Oc1cc(O)c2c(c1)O[C@H](c1ccc(O)c(O)c1)[C@H](O)[C@H]2c1c(O)cc(O)c2c1O[C@H](c1ccc(O)c(O)c1)[C@H](O)[C@H]2c1c(O)cc(O)c2c1O[C@H](c1ccc(O)c(O)c1)[C@H](O)[C@H]2c1c(O)cc(O)c2c1O[C@H](c1ccc(O)c(O)c1)[C@H](O)[C@H]2c1c(O)cc(O)c2c1O[C@H](c1ccc(O)c(O)c1)[C@H](O)C2` [Pentamers, epicatechin (4β,8)4-pentamer] was run?
Answer: 48.20%

Question: And the “% G2/M” value [1, 7]?
Answer: 20.68%

Question: And the “% S” value [1, 7]?
Answer: 31.12%

Question: What about the “% G0/G1” value [1, 8] of the same compound?
Answer: 39.47%

Question: What about the “% G2/M” value [1, 8] of the same compound?
Answer: 37.14%

Question: What about the “% S” value [1, 8] of the same compound?
Answer: 23.39%

Question: What about the “% G0/G1” value [1, 9] of the same compound?
Answer: 42.67%

Question: And the “% G2/M” value [1, 9]?
Answer: 38.71%

Question: What about the “% S” value [1, 9] of the same compound?
Answer: 18.63%

Question: And the “% G0/G1” value [1, 10]?
Answer: 41.23%

Question: And the “% G2/M” value [1, 10]?
Answer: 20.12%

Question: And the “% S” value [1, 10]?
Answer: 39.65%

Question: What about the “% G0/G1” value [1, 11] of the same compound?
Answer: 42.89%

Question: What about the “% G2/M” value [1, 11] of the same compound?
Answer: 17.68%

Question: And the “% S” value [1, 11]?
Answer: 39.43%

Question: What about the “% G0/G1” value ([1]; Table 3, 200 μg/mL, 24 hr) of the same compound?
Answer: 44.94%

Question: And the “% G2/M” value ([1]; Table 3, 200 μg/mL, 24 hr)?
Answer: 17.05%

Question: And the “% S” value ([1]; Table 3, 200 μg/mL, 24 hr)?
Answer: 38.01%

Question: And the “Effect on cell cycle (G0/G1 arrest), in words” value [1]?
Answer: caused a G0/G1 arrest

Question: And the “Cytotoxicity to human breast cancer cell lines” value ([2]; purified from cocoa polyphenol extracts or prepared synthetically)?
Answer: cytotoxicity to human breast cancer cell lines

Question: Which “Increase in G0/G1 arrest, synthetic compared to natural procyanidin” value ([1]; 200 μg/mL, 24 hr) does the source give for `Oc1cc(O)c2c(c1)O[C@H](c1ccc(O)c(O)c1)[C@H](O)[C@H]2c1c(O)cc(O)c2c1O[C@H](c1ccc(O)c(O)c1)[C@H](O)[C@H]2c1c(O)cc(O)c2c1O[C@H](c1ccc(O)c(O)c1)[C@H](O)[C@H]2c1c(O)cc(O)c2c1O[C@H](c1ccc(O)c(O)c1)[C@H](O)[C@H]2c1c(O)cc(O)c2c1O[C@H](c1ccc(O)c(O)c1)[C@H](O)C2` [Synthetic pentamer, epicatechin (4β,8)4-pentamer] here?
Answer: approximately 30%

Question: And the “% G0/G1” value [1, 5]?
Answer: 64.15%

Question: What about the “% G2/M” value [1, 5] of the same compound?
Answer: 12.49%

Question: What about the “% S” value [1, 5] of the same compound?
Answer: 23.36%

Question: What about the Cell growth inhibition ([2]; several breast cancer cell lines) of the same compound?
Answer: inhibited cell growth

Question: With `Oc1cc(O)c2c(c1)O[C@H](c1ccc(O)c(O)c1)[C@H](O)[C@H]2c1c(O)cc(O)c2c1O[C@H](c1ccc(O)c(O)c1)[C@H](O)[C@H]2c1c(O)cc(O)c2c1O[C@H](c1ccc(O)c(O)c1)[C@H](O)[C@H]2c1c(O)cc(O)c2c1O[C@H](c1ccc(O)c(O)c1)[C@H](O)C2` [Synthetic tetramer, epicatechin (4β,8)3-tetramer] as the compound, how does the “Increase in G0/G1 arrest, synthetic compared to natural procyanidin” value ([1]; 200 μg/mL, 24 hr) read?
Answer: approximately 15%

Question: What about the “% G0/G1” value [1, 5] of the same compound?
Answer: 43.49%

Question: And the “% G2/M” value [1, 5]?
Answer: 17.03%

Question: And the “% S” value [1, 5]?
Answer: 39.39%

Question: Which results are given for `Oc1cc(O)c2c(c1)O[C@H](c1ccc(O)c(O)c1)[C@H](O)[C@H]2c1c(O)cc(O)c2c1O[C@H](c1ccc(O)c(O)c1)[C@H](O)[C@H]2c1c(O)cc(O)c2c1O[C@H](c1ccc(O)c(O)c1)[C@H](O)C2` [Synthetic trimer, epicatechin (4β,8)2-trimer]?
Answer: Increase in G0/G1 arrest, synthetic compared to natural procyanidin ([1]; 200 μg/mL, 24 hr): No difference in activity; % G0/G1 [1, 5]: 26.98%; % G2/M [1, 5]: 23.45%; % S [1, 5]: 49.57%
